Measurements as given in PMC12931196, “Vm–MSI: a Vancomycin–Antimicrobial Peptide Conjugate Combating Resistant Bacteria and Broadening the Antimicrobial Spectrum” (Advanced Science, 2025).
In brackets after ≈: the same amount, converted by molar mass. Several values for one entry are separate records, joined by “and”; a condition that tells them apart may be missing. Identical values can stand only once.

Tests used:
[1] = system: S. typhimurium ATCC14028; assay: microbe, parasite or virus in culture; conditions: Salmonella enterica, 18 h
[2] = system: ompR, csgA, csgD, mlrA, and rcsB expression in E. coli ATCC25922; assay: qPCR analysis of biofilm‐related genes; conditions: 8 µM, 48 h static; qPCR ΔΔCt
[3] = system: VRSA 52; assay: Mouse skin infection model; type: in vivo, BALB/c mice
[4] = system: S. aureus CMCC26003; assay: microbe, parasite or virus in culture; conditions: Staphylococcus aureus, CMCC26003, 18 h
[5] = system: MDR K. pneumoniae 4; assay: microbe, parasite or virus in culture; conditions: Klebsiella pneumoniae, 18 h
[6] = system: 29 bacterial strains (11 Gram‐positive, 18 Gram‐negative); assay: GM of the MICs across the 29 bacterial strains; type: cell-based; conditions: read-out: GM: Geometric mean of the MICs across the 29 bacterial strains
Description: (§1) The 2 fold broth microdilution method was performed following previously established protocols.^[ [65], [66] ^] A total of 29 strains of human pathogenic microorganisms (11 Gram‐positive and 18 Gram‐negative) were included in the assay. Standard strains were maintained in our laboratory, and clinical isolates were obtained from the Fourth Affiliated Hospital of Soochow University. […] Gradient dilutions of the drugs (vancomycin, AMPs, and vancomycin‐AMP conjugates) were prepared in 96‐well plates, with 50 µL of each drug solution added per well. For the vancomycin and AMP mixture, 25 µL of vancomycin was combined with 25 µL of AMP at the corresponding monomer gradient concentration, resulting in a total volume of 50 µL. […] Following incubation, bacterial growth was assessed by measuring absorbance at 600 nm. The MIC was defined as the lowest concentration at which no bacterial growth was detected.

[7] = system: S. aureus CMCC26003 persister cells; assay: Anti‐persister cells assay; conditions: 4 µM, 48 h, after 20× MIC ciprofloxacin for 8 h
[8] = system: E. coli ATCC25922; assay: Live/dead bacteria staining (PI/SYTO9, CLSM); type: cell-based; conditions: 4 µM, 1 h
[9] = system: E. faecalis ATCC29212; assay: microbe, parasite or virus in culture; conditions: Enterococcus faecalis, ATCC29212, 18 h
[10] = system: 13 bacterial strains; assay: GM of MIC from tested bacterial strains (Table S2); type: cell-based; conditions: 13 strains of Table S2; read-out: GM: geometric mean of MIC from tested bacterial strains
Description: as §1

[11] = system: S. aureus 15772; assay: microbe, parasite or virus in culture; conditions: Staphylococcus aureus, 15772, 18 h
[12] = system: K. pneumoniae 9883; assay: microbe, parasite or virus in culture; conditions: Klebsiella pneumoniae, 9883, 18 h
[13] = system: E. coli ATCC25922 biofilms; conditions: 8 µM, 4 h, SYTO9/PI CLSM
[14] = system: MDR A. baumannii 1; assay: microbe, parasite or virus in culture; conditions: Acinetobacter baumannii, 18 h
[15] = system: VRSA 52, E. coli ATCC25922, and MDR P. aeruginosa 5; assay: Crystalline violet biofilm inhibition and eradication assays; type: cell-based; conditions: 0.5-8 µM; three strains
Description: The mixture was incubated in a 96‐well plate for 48 h. Subsequent steps, including washing, fixation, staining, and OD measurement, were performed as described in the biofilm eradication assay.

[16] = system: C. perfringens ATCC13124; assay: microbe, parasite or virus in culture; conditions: Clostridium perfringens, ATCC13124, 18 h
[17] = system: E. faecalis 2; assay: microbe, parasite or virus in culture; conditions: Enterococcus faecalis, 2, 18 h
[18] = system: S. aureus CMCC26003; assay: Antimicrobial blockade experiment using D‐Ala‐D‐Ala; type: cell-based; conditions: D‐Ala‐D‐Ala 0 to 128 µg mL^−1
Excerpt: In accordance with the experimental methods described in previous literature,^[ [42] ^]

[19] = system: P. aeruginosa ATCC27853; assay: microbe, parasite or virus in culture; conditions: Pseudomonas aeruginosa, ATCC27853, 18 h
[20] = system: S. aureus 15192; assay: microbe, parasite or virus in culture; conditions: Staphylococcus aureus, 15192, 18 h
[21] = system: MDR K. pneumoniae 2; assay: microbe, parasite or virus in culture; conditions: Klebsiella pneumoniae, 18 h
[22] = system: S. aureus ATCC29213; assay: microbe, parasite or virus in culture; conditions: Staphylococcus aureus, ATCC29213, 18 h

Structure (SMILES): CN[C@H](CC(C)C)C(=O)N[C@H]1C(=O)N[C@@H](CC(N)=O)C(=O)N[C@H]2C(=O)N[C@H]3C(=O)N[C@H](C(=O)N[C@H](C(=O)O)c4cc(O)cc(O)c4-c4cc3ccc4O)[C@H](O)c3ccc(c(Cl)c3)Oc3cc2cc(c3O[C@@H]2O[C@H](CO)[C@@H](O)[C@H](O)[C@H]2O[C@H]2C[C@](C)(N)[C@H](O)[C@H](C)O2)Oc2ccc(cc2Cl)[C@H]1O [Vm, vancomycin]
- MIC [1]: > 67.3 µM and > 100 µg/mL
- csgA expression relative to control [2]: 0.8
- csgD expression relative to control [2]: 0.6
- rcsB up‐regulation relative to control [2]: 1.5 fold
- reduction in bacterial count within the wound ([3]; topical 2 mg kg^−1 at 6, 24 and 48 h post‐infection, VRSA 52 1 × 10^8 CFU mL^−1, wound CFU after 3 days): ≈ 30%
- pro‐inflammatory cytokines TNF‐α and IL‐6 at the infection site ([3]; topical 2 mg kg^−1 ×3, ELISA of wound supernatant): didn't effectively decrease
- skin wound healing ([3]; topical 2 mg kg^−1 ×3, observed to day 12): remained unhealed
- MIC [4]: 0.4 µM and 0.59 µg/mL
- MIC [5]: > 67.3 µM
- MIC [6]: 55.1 µM (≈ 79.8 µg/mL)
- reduction in the number of persister cells [7]: one‐order reduction
- bacteria killed (mortality) [8]: 6%
- MIC [9]: > 67.3 µM and > 100 µg/mL
- MIC [10]: 70 µg/mL (≈ 48.3 µM)
- MIC [11]: > 67.3 µM and > 100 µg/mL
- MIC [12]: > 67.3 µM and > 100 µg/mL
- killing at the bottom of the biofilm [13]: 20%
- killing at the surface of the biofilm [13]: 60%
- MIC [14]: > 67.3 µM
- anti‐biofilm activity (inhibition and eradication) [15]: no noticeable anti‐biofilm activity
- MIC [16]: 25.2 µM (≈ 36.6 µg/mL)
- MIC [17]: > 67.3 µM
- fold increase in the MIC value on exogenous addition of D‐Ala‐D‐Ala [18]: > 25 fold
- MIC [19]: > 67.3 µM and > 100 µg/mL
- MIC [20]: 0.4 µM and 0.59 µg/mL
- MIC [21]: > 67.3 µM
- MIC [22]: 3.16 µM and 4.69 µg/mL
